Results published in PubChem BioAssay AID296 (DTP/NCI, 2004).
Values joined by “and” are separate entries in the source; they are usually repeats but may differ in a detail not shown here. Equal values may be shown once. Inconclusive results are not listed.

System: MX-1 breast xenograft, nude mice, tumor weight T/C
Test: NCI In Vivo Anticancer Drug Screen. Data for tumor model Human Mammary Carcinoma MX-1 Xenograft (intrarenal inoculation) in NU/NU Swiss (nude) mice
Settings: endpoint: mean tumor weight change, higher = larger tumour
Experimental: The antitumor activity of compounds was measured in mice bearing transplantable tumors. Survival or tumor size were measured and the results are expressed as the measurement made in the treated group (T) divided by the measurement made in the vehicle treated control group (C). The tumor model used in this assay is Human Mammary Carcinoma MX-1 Xenograft (intrarenal inoculation) in NU/NU Swiss (nude) mice

[1] = dose: 300.0 mg/kg/injection, schedule: Q04DX003 (sc), vehicle: Klucel (hydroxypropylcellulose) (HPC)
[2] = dose: 600.0 mg/kg/injection, schedule: Q04DX003 (sc), vehicle: Klucel (hydroxypropylcellulose) (HPC)
[3] = dose: 1200.0 mg/kg/injection, schedule: Q04DX003 (sc), vehicle: Klucel (hydroxypropylcellulose) (HPC)
[4] = dose: 50.0 mg/kg/injection, schedule: Q01DX010 (sc), vehicle: Klucel (hydroxypropylcellulose) (HPC)
[5] = dose: 100.0 mg/kg/injection, schedule: Q01DX010 (sc), vehicle: Klucel (hydroxypropylcellulose) (HPC)
[6] = dose: 600.0 mg/kg/injection, schedule: Q04DX003 (sc), vehicle: saline with Tween-80
[7] = dose: 50.0 mg/kg/injection, schedule: Q01DX010 (sc), vehicle: saline
[8] = dose: 100.0 mg/kg/injection, schedule: Q01DX010 (sc), vehicle: saline

COc1cc(C(=O)c2cocc2C(=O)c2ccc3c(c2)OCO3)cc(OC)c1OC
T/C (dose: 150.0 mg/kg/injection, schedule: Q04DX003 (sc), vehicle: Klucel (hydroxypropylcellulose) (HPC)): 74 % of control
T/C [1]: 52 % of control
T/C [2]: 56 % of control
T/C [3]: 44 % of control

C1OC1CN1CCN(CC2CO2)CC1 (stereo not drawn)
T/C (dose: 8.0 mg/kg/injection, schedule: Q01DX010 (sc), vehicle: suspension in saline): 289 % of control
T/C (dose: 16.0 mg/kg/injection, schedule: Q01DX010 (sc), vehicle: saline): 8 % of control and 33 % of control
T/C (dose: 16.0 mg/kg/injection, schedule: Q01DX010 (sc), vehicle: suspension in saline): 98 % of control

CNC(=O)OCc1nc(SC)n(C)c1COC(=O)NC
T/C (dose: 50.0 mg/kg/injection, schedule: Q04DX003 (ip), vehicle: saline): 8 % of control
T/C (dose: 100.0 mg/kg/injection, schedule: Q04DX003 (ip), vehicle: saline): 3 % of control
T/C (dose: 200.0 mg/kg/injection, schedule: Q04DX003 (ip), vehicle: saline): -56 % of control

CC1(C)N=C(N)N=C(N)N1c1ccc(CCCCc2ccc(S(=O)(=O)F)cc2Cl)c(Cl)c1
T/C (dose: 12.5 mg/kg/injection, schedule: Q01DX010 (sc), vehicle: suspension in saline): 87 % of control
T/C (dose: 25.0 mg/kg/injection, schedule: Q01DX010 (sc), vehicle: suspension in saline): 77 % of control
T/C (dose: 50.0 mg/kg/injection, schedule: Q01DX010 (sc), vehicle: suspension in saline): 57 % of control

O=c1ncccn1[C@@H]1O[C@H](CO)[C@H](O)C1O (stereo partly drawn)
T/C (dose: 150.0 mg/kg/injection, schedule: Q04DX003 (sc), vehicle: saline): 114 % of control
T/C (dose: 300.0 mg/kg/injection, schedule: Q04DX003 (sc), vehicle: saline): 156 % of control
T/C (dose: 600.0 mg/kg/injection, schedule: Q04DX003 (sc), vehicle: saline): 160 % of control
T/C (dose: 1200.0 mg/kg/injection, schedule: Q04DX003 (sc), vehicle: saline): 108 % of control

CCC1CC2CN(CCc3c([nH]c4ccccc34)C(C(=O)OC)(c3cc4c(cc3OC)N(C)C3C(O)(C(=O)OC)C(OC(C)=O)C5(CC)C=CCN6CCC43C65)C2)C1 (stereo not drawn)
T/C (dose: 4.0 mg/kg/injection, schedule: Q04DX003 (sc), vehicle: saline): 36 % of control
T/C (dose: 8.0 mg/kg/injection, schedule: Q04DX003 (sc), vehicle: saline): 4 % of control
T/C (dose: 8.0 mg/kg/injection, schedule: Q04DX003 (sc), vehicle: water): 25 % of control
T/C (dose: 16.0 mg/kg/injection, schedule: Q04DX003 (sc), vehicle: saline): -86 % of control

O=C([CH-]C(=O)C(F)(F)F)c1ccccc1.O=C([CH-]C(=O)C(F)(F)F)c1ccccc1.O=C([CH-]C(=O)C(F)(F)F)c1ccccc1.O=C([CH-]C(=O)C(F)(F)F)c1ccccc1.[Eu+3].c1ccncc1
T/C [4]: 197 % of control
T/C [5]: 174 % of control
T/C (dose: 200.0 mg/kg/injection, schedule: Q01DX010 (sc), vehicle: Klucel (hydroxypropylcellulose) (HPC)): 97 % of control
T/C (dose: 400.0 mg/kg/injection, schedule: Q01DX010 (sc), vehicle: Klucel (hydroxypropylcellulose) (HPC)): 178 % of control

N#Cc1cn(C2OC(CO)C(O)C2O)c2ncnc(N)c12 (stereo not drawn)
T/C (dose: 0.5 mg/kg/injection, schedule: Q01DX010 (sc), vehicle: saline): 172 % of control

CN(C1=NS(=O)(=O)N=C(N(C)c2ccccc2)O1)c1ccccc1
T/C [1]: 102 % of control
T/C [2]: 110 % of control
T/C [3]: 113 % of control
T/C (dose: 2400.0 mg/kg/injection, schedule: Q04DX003 (sc), vehicle: Klucel (hydroxypropylcellulose) (HPC)): 106 % of control

NC(=S)N/N=C/c1ccc(OC(=O)COc2ccccc2)cn1
T/C (dose: 300.0 mg/kg/injection, schedule: Q04DX003 (sc), vehicle: saline with Tween-80): 101 % of control
T/C [6]: 103 % of control
T/C (dose: 1200.0 mg/kg/injection, schedule: Q04DX003 (sc), vehicle: saline with Tween-80): 76 % of control

CCC/C=C/C=C/C(=O)OC1/C(=C/C(=O)OC)CC2CC(C(C)O)OC(=O)CC(O)CC3CC(OC(C)=O)C(C)(C)C(O)(CC4C/C(=C/C(=O)OC)CC(/C=C/C(C)(C)C1(O)O2)O4)O3 (stereo not drawn)
T/C (dose: 0.25 mg/kg/injection, schedule: Q04DX003 (sc), vehicle: saline + alcohol): 103 % of control
T/C (dose: 0.5 mg/kg/injection, schedule: Q04DX003 (sc), vehicle: saline + alcohol): 111 % of control
T/C (dose: 1.0 mg/kg/injection, schedule: Q04DX003 (sc), vehicle: saline + alcohol): 70 % of control
T/C (dose: 2.0 mg/kg/injection, schedule: Q04DX003 (sc), vehicle: saline + alcohol): 60 % of control

CC1=CC2C(O)(CC(CO)=CC3C4C(C)(C)C4(OC(=O)c4ccccc4)C(OC(=O)c4ccccc4)C(C)C32O)C1=O (stereo not drawn)
T/C (dose: 2.5 mg/kg/injection, schedule: Q04DX003 (sc), vehicle: saline with Tween-80): 83 % of control
T/C (dose: 5.0 mg/kg/injection, schedule: Q04DX003 (sc), vehicle: saline with Tween-80): 70 % of control
T/C (dose: 10.0 mg/kg/injection, schedule: Q04DX003 (sc), vehicle: saline with Tween-80): 90 % of control

C(CSC1=NCCN1)CSC1=NCCN1
T/C [7]: 103 % of control

[Cl][Pt+2][Cl].[NH-]C1CCC1.[NH2-]
T/C (dose: 6.25 mg/kg/injection, schedule: Q04DX003 (sc), vehicle: suspension in saline): -100 % of control
T/C (dose: 25.0 mg/kg/injection, schedule: Q04DX003 (sc), vehicle: suspension in saline): -84 % of control and -100 % of control

CC(C)[NH-].CC(C)[NH-].[Cl][Pt+2][Cl]
T/C (dose: 300.0 mg/kg/injection, schedule: Q04DX003 (sc), vehicle: dextrose): 35 % of control

O=NNc1ccc(Cl)cn1
T/C (dose: 18.7 mg/kg/injection, schedule: Q04DX003 (ip), vehicle: water): 24 % of control
T/C (dose: 37.5 mg/kg/injection, schedule: Q04DX003 (ip), vehicle: water): -51 % of control

CCCCOCN(COCCCC)C(C)Cc1ccccc1 (stereo not drawn)
T/C (dose: 200.0 mg/kg/injection, schedule: Q04DX003 (sc), vehicle: saline with Tween-80): 70 % of control
T/C (dose: 400.0 mg/kg/injection, schedule: Q04DX003 (sc), vehicle: saline with Tween-80): 52 % of control
T/C (dose: 800.0 mg/kg/injection, schedule: Q04DX003 (sc), vehicle: saline with Tween-80): 66 % of control

O=C(CO)c1ccc([N+](=O)[O-])cc1
T/C (dose: 100.0 mg/kg/injection, schedule: Q01DX010 (sc), vehicle: saline with Tween-80): 95 % of control
T/C (dose: 200.0 mg/kg/injection, schedule: Q01DX010 (sc), vehicle: saline with Tween-80): 114 % of control
T/C (dose: 400.0 mg/kg/injection, schedule: Q01DX010 (sc), vehicle: saline with Tween-80): 67 % of control
T/C (dose: 800.0 mg/kg/injection, schedule: Q01DX010 (sc), vehicle: saline with Tween-80): 63 % of control

C/C(=N\N=C(/[Se])N1CC2CCC(CC2)C1)c1ccccn1
T/C (dose: 25.0 mg/kg/injection, schedule: Q04DX003 (sc), vehicle: Klucel (hydroxypropylcellulose) (HPC)): 106 % of control
T/C (dose: 50.0 mg/kg/injection, schedule: Q04DX003 (sc), vehicle: Klucel (hydroxypropylcellulose) (HPC)): 110 % of control

C1CN2CN3CCN(CN1C3)C2
T/C [8]: 114 % of control
T/C (dose: 200.0 mg/kg/injection, schedule: Q01DX010 (sc), vehicle: saline): 97 % of control

N=c1c(C(=O)OCc2ccccc2)ncc(CCl)n1O
T/C [6]: 89 % of control
T/C (dose: 2400.0 mg/kg/injection, schedule: Q04DX003 (sc), vehicle: saline with Tween-80): 72 % of control

NC1=NCN(C2OC(CO)C(O)C2O)C(=O)N1 (stereo not drawn)
T/C (dose: 12.5 mg/kg/injection, schedule: Q01DX010 (sc), vehicle: saline): 86 % of control
T/C (dose: 25.0 mg/kg/injection, schedule: Q01DX010 (sc), vehicle: saline): 32 % of control and 42 % of control
T/C (dose: 25.0 mg/kg/injection, schedule: Q04DX003 (sc), vehicle: saline): 34 % of control
T/C [7]: 3 % of control and 4 % of control
T/C (dose: 75.0 mg/kg/injection, schedule: Q04DX003 (sc), vehicle: saline): 55 % of control
T/C [8]: 6 % of control
T/C (dose: 100.0 mg/kg/injection, schedule: Q04DX003 (sc), vehicle: saline): 14 % of control and 30 % of control
T/C (dose: 200.0 mg/kg/injection, schedule: Q04DX003 (sc), vehicle: saline): 8 % of control
T/C (dose: 400.0 mg/kg/injection, schedule: Q04DX003 (sc), vehicle: saline): 2 % of control

CN(C)c1nc(N(C)C)nc(N(C)C)n1
T/C (dose: 25.0 mg/kg/injection, schedule: Q01DX010 (sc), vehicle: Klucel (hydroxypropylcellulose) (HPC)): 5 % of control
T/C [4]: 21 % of control
T/C [5]: -82 % of control
T/C [6]: -87 % of control and -100 % of control

C=C(C)C(=NC(C)(C)C)Nc1ccccc1
T/C (dose: 100.0 mg/kg/injection, schedule: Q04DX003 (sc), vehicle: saline with Tween-80): 101 % of control
